Measurements reported in US20250186436A1 (4E Therapeutics, Inc., priority 2021, published 2025).
Several values for one entry are separate records, joined by “and”; a condition that tells them apart may be missing. Equal values may be shown once. Read-outs that look alike come from different tables or passages of the source.

Key:
[1] = molecular target: T1, recombinant full-length human kinase MNK1 (Homo sapiens, UniProt Q9BUB5); assay: MNK1 radiometric kinase activity assay; type: biochemical; conditions: radiometric activity assay; read-out: MNK1
T1 construct: the recombinant full-length human kinase MNK1; made in house; host or cells: insect cells
T1 sequence (Q9BUB5 whole entry): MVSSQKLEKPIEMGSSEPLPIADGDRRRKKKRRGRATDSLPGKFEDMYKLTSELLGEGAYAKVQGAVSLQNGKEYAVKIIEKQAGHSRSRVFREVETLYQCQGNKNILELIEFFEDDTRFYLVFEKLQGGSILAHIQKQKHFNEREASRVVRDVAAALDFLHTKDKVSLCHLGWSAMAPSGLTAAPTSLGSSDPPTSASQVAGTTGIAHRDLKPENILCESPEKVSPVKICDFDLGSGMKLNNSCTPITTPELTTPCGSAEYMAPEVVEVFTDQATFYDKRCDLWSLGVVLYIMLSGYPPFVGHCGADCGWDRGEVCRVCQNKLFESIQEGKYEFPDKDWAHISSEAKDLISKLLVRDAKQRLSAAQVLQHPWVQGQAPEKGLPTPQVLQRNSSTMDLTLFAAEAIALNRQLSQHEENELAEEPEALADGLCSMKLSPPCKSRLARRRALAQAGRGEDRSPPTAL

[2] = molecular target: T2, recombinant full length human kinase MNK2 (Homo sapiens, UniProt Q9HBH9); assay: MNK2 radiometric kinase activity assay; type: biochemical; conditions: radiometric activity assay; read-out: MNK2
T2 construct: the recombinant full length human kinase MNK2; made in house; host or cells: insect cells
T2 sequence (Q9HBH9 whole entry): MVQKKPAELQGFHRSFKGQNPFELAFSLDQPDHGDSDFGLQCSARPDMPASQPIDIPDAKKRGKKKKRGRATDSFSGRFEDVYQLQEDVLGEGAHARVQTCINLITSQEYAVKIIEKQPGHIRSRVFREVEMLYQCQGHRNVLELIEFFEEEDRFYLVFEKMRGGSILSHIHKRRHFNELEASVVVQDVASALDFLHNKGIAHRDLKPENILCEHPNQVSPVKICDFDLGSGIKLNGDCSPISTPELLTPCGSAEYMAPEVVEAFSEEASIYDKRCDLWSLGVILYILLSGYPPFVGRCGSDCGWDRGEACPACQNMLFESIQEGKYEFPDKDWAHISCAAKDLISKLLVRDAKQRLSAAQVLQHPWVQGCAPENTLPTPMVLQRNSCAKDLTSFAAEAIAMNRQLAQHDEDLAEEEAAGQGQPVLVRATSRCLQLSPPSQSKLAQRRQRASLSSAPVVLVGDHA

[3] = tested on: eIF4E phosphorylation at Serine 209 in HEK 293 cells; assay: eIF4E phosphorylation in HEK 293 cells (phospho-specific antibody, fluorescent plate reader); type: cell-based; conditions: Homo sapiens, HEK293; eIF4E phosphorylation at Serine 209, 2 hours exposure; read-out: HEK 293 cell;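 further: Well-level p-eIF4E immunofluorescence normalized to DAPI signal, expressed as percent eIF4E phosphorylation, with IC50 derived from concentration-response curves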
[4] = PK study in CD-1 male mice with IV and PO dosing (Example 3); type: in vivo; conditions: for AUC(0-t): AUClast; for concentration at 24 h: Clast; for MRT inf: MRTinf
Method: Example 3: PK study of 4ET-03-053 in CD-1 male mice with IV and PO dosing
In mice, following IV administration with 1.5 mg/kg, plasma concentrations declined in a multiphasic manner with an initial concentration (Co) of 708 ng/mL and a last measurable concentration (Clast) of 5.29 ng/mL at 24 h post dose.

[5] = Plasma and brain concentrations, brain to plasma ratio in male CD1 mice (Example 3); type: in vivo; conditions: 2 h post dosing; for concentration at 2 h: male, CD1, mouse
[6] = Plasma and brain concentrations, brain:plasma ratio 24 hr after last of five daily 1 mg/kg PO doses (Example 6); type: in vivo, rats; conditions: for concentration at 24 h / Kp at 24 h: rat; for concentration at 24 h: oral, 1 mg/kg
From the text: Table 18 provides plasma and brain concentrations of 4ET-03-0053 at 24 hr after the last dose of five daily P0 doses.

[7] = PK study in male Sprague-Dawley rats dosed once per day for five days, PO 10 mg/kg, 0.5% HPMC (Example 7); type: in vivo; conditions: Sprague-Dawley rats, day five of daily PO 10 mg/kg, 0.5% HPMC suspension; individual animals; 10 mg/kg
Method: Example 7. PK study of 4ET-03-053 in male Sprague-Dawley rats dosed once per day for five days (P0; 10 mg/kg; 0.5%0HPMC aqueous suspension)
Table 21 provides plasma and brain concentrations at 24 hr after the last dose of five daily P0 doses of 4ET-03-053.

[8] = male, CD-1, mouse, in vivo, iv, 1.5 mg/kg
[9] = male, CD-1, mouse, in vivo, po, 10 mg/kg

## Cc1cc(Nc2cc(N)ncn2)c(=O)n2c1C(=O)NC21CCC2(CC2)CC1 [4ET-03-053, 6″-((6-Aminopyrimidin-4-yl)amino)-8″-methyl-2″H-dispiro[cyclopropane-1,1′-cyclohexane-4′,3″-imidazo[1,5-a]pyridine]-1″,5″-dione]
[1]
  IC50: 215 nM
[2]
  IC50: 20.9 nM
[3]
  IC50: 10.1 nM
[4]; CD-1 male mice, 10 mg/kg PO, individual animals, 10 mg/kg
  F: 75.6%
[4]; [8]
  clinical observation after dosing: lying on side and immobile with heavy breathing for about 1 min
  AUC(0-t): 1300 ng·h/mL
  concentration at 24 h: 5.29 ng/mL
  MRT inf: 4.93 h
[4]; male, CD-1, mouse, in vivo, iv, 1.5 mg/kg, AUCinf
  AUC(0-inf): 1530 ng·h/mL
[4]; male, CD-1, mouse, in vivo, iv, 1.5 mg/kg, CLp
  clearance: 19.3 mL/min/kg
[4]; male, CD-1, mouse, in vivo, iv, 1.5 mg/kg, Vss
  Vd: 5.63 L/kg
[4]; male, CD-1, mouse, in vivo, iv, 1.5 mg/kg, t1/2
  half-life: 370 min
[4]; male, CD-1, mouse, in vivo, iv, 1.5 mg/kg, total systemic exposure (AUCinf)
  AUC(0-inf): 1320 ng·h/mL
[4]; [9]
  Tmax: 30 min
  bioavailability: 75%
  time to mean peak plasma concentration: ≤ 30 min
  AUC(0-t): 6420 ng·h/mL
  concentration at 24 h: 33.2 ng/mL
  MRT inf: 6.7 h
[4]; male, CD-1, mouse, in vivo, po, 10 mg/kg, AUCinf
  AUC(0-inf): 6670 ng·h/mL
[4]; male, CD-1, mouse, in vivo, po, 10 mg/kg, Cmax
  Cmax: 807 ng/mL
[4]; male, CD-1, mouse, in vivo, po, 10 mg/kg, t1/2
  half-life: 308 min
[4]; male, CD-1, mouse, in vivo, po, 10 mg/kg, total systemic exposure (AUCinf)
  AUC(0-inf): 6620 ng·h/mL
[4]; mice, slow IV injection at 3 mg/kg, first animal
  clinical observation after dosing: died immediately after a slow IV injection
[4]; mouse, in vivo, CD-1 male mice, 10 mg/kg PO, individual animals, read-out: t1/2 (converted)
  half-life: 307 min
[5]; individual animals (n = 3)
  Brain Tissue Homogenate Conc.: 5.89 ng/mL and 6.41 ng/mL
  Plasma Conc.: 584 ng/mL and 661 ng/mL
[5]; brain tissue homogenate, individual animals (n = 3), read-out: Brain Tissue Homogenate Conc.
  concentration at 2 h: 4.61 ng/mL
[5]; brain tissue homogenate, mean, read-out: Brain Tissue Homogenate Conc., Mean
  concentration at 2 h: 5.64 ng/mL
[5]; brain tissue, read-out: Brain Mean Tissue
  concentration at 2 h: 22.5 ng/g
[5]; plasma, individual animals (n = 3), read-out: Plasma Conc.
  concentration at 2 h: 488 ng/mL
[5]; plasma, mean, read-out: Plasma Conc., Mean
  concentration at 2 h: 578 ng/mL
[5]; mouse, brain/plasma, read-out: Mean Tissue/Plasma Conc. Ratio (brain to plasma ratio)
  Kp at 2 h: 0.039
[6]; male, Sprague-Dawley, brain homogenate, rats, brain homogenate, 24 hr after the last 1 mg/kg PO dose on day 5, individual animals (n = 3), read-out: Tissue Homogenate Conc.
  concentration at 24 h: 7.22 ng/mL
[6]; male, Sprague-Dawley, brain homogenate, rats, brain homogenate, 24 hr after the last 1 mg/kg PO dose on day 5, mean, read-out: Tissue Homogenate Conc., Mean
  concentration at 24 h: 6.02 ng/mL
[6]; male, Sprague-Dawley, brain, rats, brain, 24 hr after the last 1 mg/kg PO dose on day 5, read-out: Mean Tissue
  concentration at 24 h: 24.1 ng/g
[6]; male, Sprague-Dawley, plasma, rats, plasma, 24 hr after the last 1 mg/kg PO dose on day 5, individual animals (n = 3), read-out: Plasma Conc.
  concentration at 24 h: 318 ng/mL
[6]; male, Sprague-Dawley, plasma, rats, plasma, 24 hr after the last 1 mg/kg PO dose on day 5, mean, read-out: Plasma Conc., Mean
  concentration at 24 h: 278 ng/mL
[6]; male, Sprague-Dawley, rats, brain to plasma, 24 hr after the last 1 mg/kg PO dose on day 5, read-out: Mean Tissue/Plasma Conc. Ratio
  Kp at 24 h: 0.086
[6]; brain, Sprague-Dawley rats, 24 hr after the last dose of five daily PO doses of 1 mg/kg, read-out: brain:plasma ratio
  Kp at 24 h: 0.086
[6]; rats, brain homogenate, 24 hr after the last 1 mg/kg PO dose on day 5, individual animals (n = 3)
  Tissue Homogenate Conc.: 5.79 ng/mL and 5.04 ng/mL
[6]; rats, plasma, 24 hr after the last 1 mg/kg PO dose on day 5, individual animals (n = 3)
  Plasma Conc.: 291 ng/mL and 226 ng/mL
[7]
  AUCinf: 318.204 µg·h/mL and 347.92 µg·h/mL
  AUCinf/D: 25862 kg·h/kL and 31820 kg·h/kL and 34792 kg·h/kL
  AUClast: 291.659 µg·h/mL and 320.41 µg·h/mL
  Clast: 2390 ng/mL and 2740 ng/mL
  Cmax: 18800 ng/mL
  Cmax/D: 2460 kg/kL and 1880 kg/kL and 2510 kg/kL
  F: 50.2% and 61.8% and 67.6%
  MRTinf: 9.17 h and 9.18 h
  t1/2: 7.19 h and 6.73 h
